Experimental data taken from PubChem BioAssay (NCI).
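The compound was tested at five concentrations on cells cultured in 96-well plates, with a 48-hour exposure period. Definition used: TGI = concentration required for complete inhibition of growth.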

Legend:
Experiment in all cases: NCI anticancer screen, dose series, 48 h
[1] = tested on: HL-60(TB) leukemia
[2] = tested on: 786-0 renal
[3] = tested on: NCI-H460 lung
[4] = tested on: A549 NSCLC
[5] = tested on: SN12C renal
[6] = tested on: SF-539 CNS
[7] = tested on: SF-268 CNS
[8] = tested on: SNB-75 CNS
[9] = tested on: SR leukemia
[10] = tested on: KM12 colon
[11] = tested on: MOLT-4 leukemia
[12] = tested on: HT29 colon
[13] = tested on: OVCAR-8 ovarian
[14] = tested on: UACC-62 melanoma
[15] = tested on: HOP-92 NSCLC
[16] = tested on: KM20L2 colon
[17] = tested on: SF-295 CNS
[18] = tested on: SNB-19 CNS
[19] = tested on: SK-MEL-5 melanoma
[20] = tested on: UO-31 renal
[21] = tested on: NCI-H23 lung
[22] = tested on: M19-MEL melanoma
[23] = tested on: M14 melanoma
[24] = tested on: SNB-78 CNS
[25] = tested on: HOP-62 NSCLC
[26] = tested on: XF 498 CNS
[27] = tested on: HOP-18 NSCLC
[28] = tested on: OVCAR-4 ovarian
[29] = tested on: NCI-H226 lung
[30] = tested on: MALME-3M melanoma
[31] = tested on: SK-MEL-2 melanoma
[32] = tested on: CCRF-CEM leukemia
[33] = tested on: UACC-257 melanoma
[34] = tested on: ACHN renal
[35] = tested on: EKVX NSCLC
[36] = tested on: OVCAR-5 ovarian
[37] = tested on: LXFL 529 NSCLC
[38] = tested on: RPMI-8226 leukemia
[39] = tested on: SK-MEL-28 melanoma
[40] = tested on: A498 renal
[41] = tested on: K-562 leukemia
[42] = tested on: HCC-2998 colon
[43] = tested on: LOX IMVI melanoma
[44] = tested on: DLD-1 colon
[45] = tested on: DMS 273 small cell lung
[46] = tested on: RXF 393 renal
[47] = tested on: CAKI-1 renal
[48] = tested on: HCT-116 colon
[49] = tested on: IGROV1 ovarian
[50] = tested on: DMS 114 small cell lung
[51] = tested on: OVCAR-3 ovarian
[52] = tested on: SW-620 colon
[53] = tested on: TK-10 renal
[54] = tested on: HCT-15 colon

Measured: TGI

CC(=O)Nc1ccc(/C=N\N2C(=O)c3ccccc3C2=O)cc1
> 100 µM: all assays above
